Experimental findings from patent publication US20130150354A1, “NEW SELECTIVE CCR2 ANTAGONISTS” (BOEHRINGER INGELHEIM INTERNATIONAL GMBH, priority 2011, published 2013) are described below.

Molecules are shown by their SMILES.

T2 sequence (P51681 whole entry): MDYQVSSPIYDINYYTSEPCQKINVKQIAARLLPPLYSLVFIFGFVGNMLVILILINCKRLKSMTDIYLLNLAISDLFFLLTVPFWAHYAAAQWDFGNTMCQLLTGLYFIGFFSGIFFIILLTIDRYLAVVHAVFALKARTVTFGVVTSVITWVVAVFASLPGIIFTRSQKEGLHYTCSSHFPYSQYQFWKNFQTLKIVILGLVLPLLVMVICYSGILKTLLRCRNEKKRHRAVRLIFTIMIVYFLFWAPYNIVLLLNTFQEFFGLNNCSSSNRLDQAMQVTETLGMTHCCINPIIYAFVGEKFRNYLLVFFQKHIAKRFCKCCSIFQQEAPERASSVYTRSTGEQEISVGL

The target in one assay is T1, CCR2 (Homo sapiens, UniProt P41597).
T1 construct: Membranes were prepared from THP-1 cells; endogenous in cells; host or cells: THP-1 (human acute monocytic leukaemia cells), membrane preparation
T1 sequence (P41597 1-360 isoform P41597-2): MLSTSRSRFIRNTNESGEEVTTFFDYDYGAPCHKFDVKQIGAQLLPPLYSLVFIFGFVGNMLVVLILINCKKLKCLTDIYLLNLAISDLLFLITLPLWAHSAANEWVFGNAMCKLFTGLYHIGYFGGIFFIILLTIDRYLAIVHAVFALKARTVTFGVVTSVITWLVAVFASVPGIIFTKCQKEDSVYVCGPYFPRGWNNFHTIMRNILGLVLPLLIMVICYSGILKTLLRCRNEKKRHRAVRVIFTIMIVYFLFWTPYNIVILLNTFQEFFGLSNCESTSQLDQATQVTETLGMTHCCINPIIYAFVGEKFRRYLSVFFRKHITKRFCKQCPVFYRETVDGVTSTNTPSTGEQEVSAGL
In words: CCR2 receptor membrane binding assay (THP-1 membranes, 125I-MCP-1, SPA beads). The following applies: THP-1 cell membranes, 125I-MCP-1, 8 h; read-out: hKi [nM] (CCR2). How it is done:
The above exemplary substances have been tested for binding to CCR2 using a binding assay as outlined herein below:
THP-1 cells (human acute monocytic leukaemia cells) were cultured under standardized conditions at 37° C. and 5% CO2 in a humidified incubator. THP-1 cells were cultivated in RPMI 1640 medium (Gibco 21875) containing 1% MEM-NEAA (Gibso 11140) 2 mM L-glutamine, 1.5 g/L sodium bicarbonate, 4.5 g/L glucose, 10 mM HEPES and 1.0 mM sodium pyruvate, 90%; 10% fetal calf serum (FCS Gibco 10500-064).
Membranes were prepared from THP-1 cells. THP-1 cells were centrifuged at 300×g at 4° C. for 10 min. The cell pellet was resuspendet in Phosphate Buffer Saline (PBS, including 10 μM Pefabloc and a protease inhibitor mix ‘complete’, Boehringer Mannheim (1 tablet/50 ml)), to a concentration of […]. The membrane preparation was performed by disrupting the cells by nitrogen […] (at 50 bar, for 1 h) in a “Nitrogen Bombe” (Parr Instrument). Cell debris was removed by centrifugation (800×g at 4° C., 1 min). The supernatant was centrifuged at 80000×g, 4° C. for 30 min to sediment the cell membranes. Usually 50 mg of protein (Bradford assay) were yielded from 1×10E9 cells. The membranes were resuspendet in 25 mM HEPES, 25 mM MgCl2, 1 mM CaCl2, 10% Glycerine for storage in aliquots at −80° C. in 25 mM HEPES, 25 mM MgCl2, 1 mM CaCl2, 10% Glycerine and stored at −80° C.
Perkin Elmer NEX 332 Jod^125 MCP-1, Stock: 2200 Ci/mmol solved in 2000 μl assay buffer, stored at −20° C. THP-1 membrane were adjusted with 25 mM HEPES, pH 7.2; 5 mM MgCl2; 0.5 mM CaCl2; 0.2% BSA assay buffer to a concentration of 2.5 μg/15 μl. Amersham Biosciences PVT-WGA Beads (RPNQ0001) were adjusted with assay buffer to a concentration of 0.24 mg/30 μl. For preparation of the membrane-bead-suspension membranes and beads were incubated for 30 min at RT under rotation (60 rpm) with a ratio of 1:2. Test compounds dissolved in 100% DMSO to a concentration of 10 mM and are further diluted with 100% DMSO to 1 mM. All additional compound dilutions were obtained with assay buffer, final 1% DMSO. Compounds, membrane-bead-suspension and [^125]MCP-1 (ca. 25000 cpm/10 μl) were incubated. Bound radioactivity was determined by scintillation counter after 8 h. Determination of affinity of test compounds (dissociation constant hKi) is calculated by iterative fitting of experimental data using the “easy sys” program, which is based on law of mass action (Schittkowski K. (1994), Numerische Mathematik, Vol. 68, 129-142).
For `Cc1c(Nc2ccc(Cl)c(Cl)c2)ncnc1C(=O)N1CCC(N2C[C@H]3C[C@@H](N(C)S(C)(=O)=O)C[C@H]3C2)CC1` [Example 10], the Ki came out at 0.6 nM.

As to `COc1nc(Nc2ccc(Cl)c(Cl)c2)c(C)c(C(=O)N2CCC(N3CCO[C@H]4COCC[C@H]43)CC2)n1` [Example 28], the Ki amounted to 0.9 nM.

Turning to `COc1nc(Nc2cccc(C(F)(F)F)c2)c(C)c(C(=O)N2CCC(N3CCO[C@H]4COCC[C@H]43)CC2)n1` (single isomer, unassigned) [Example 36a], the Ki turned out to be 7 nM.

`Cc1c(NC[C@H]2CCC[C@@H](c3ccc(C(F)(F)F)cc3)O2)ncnc1C(=O)N1CCC(N2CCO[C@@H]3COCC[C@@H]32)CC1` [Example 1]: the Ki worked out at 15 nM.

For `Cc1ccc([C@@H]2CCC[C@H](CNc3ncnc(C(=O)N4CCC(N5CC6COCC6C5)CC4)c3C)O2)cc1` (stereo partly drawn) [Example 16], the Ki is 40 nM.

For `Cc1c(Nc2cccc(C(F)(F)F)c2)nc(C2CC2)nc1C(=O)N1CCC(N2CCO[C@@H]3COCC[C@@H]32)CC1` (single isomer, unassigned) [Example 39b], the Ki came out at 31 nM.

In the case of `Cc1c(NC[C@H]2CCC[C@@H](c3ccccc3)C2)ncnc1C(=O)N1CCC(N2CC3CN(S(C)(=O)=O)CC3C2)CC1` (stereo partly drawn) [Example 43], the Ki stood at 1 nM.

As to `Cc1c(C(=O)N2CCC(N3CCO[C@@H]4COCC[C@@H]43)CC2)ncnc1N1COc2ccc(C(F)(F)F)cc2C1` (single isomer, unassigned) [Example 41], the Ki was found to be 2 nM.

Take `Cc1c(Nc2ccc(Cl)c(Cl)c2)nc(C2CC2)nc1C(=O)N1CCC(N2CCO[C@@H]3COCC[C@@H]32)CC1` (single isomer, unassigned) [Example 35b]: the Ki was found to be 9 nM.

Regarding `COc1nc(NCc2ccc(C(C)(C)C)cc2)c(C)c(C(=O)N2CCC(N3CC4COCC4C3)CC2)n1` (stereo not drawn) [Example 19], the Ki is 58 nM.

As for `Cc1ccc([C@@H]2CCC[C@H](CNc3ncnc(C(=O)N4CCC(N5C[C@H]6C[C@@H](N(C)S(C)(=O)=O)C[C@H]6C5)CC4)c3C)O2)cc1` [Example 6], the Ki amounted to 0.3 nM.

The next assay concerns the target T2, human CCR5 (Homo sapiens, UniProt P51681).
T2 construct: expressed in transfected cells; host or cells: CHO cells co-expressing Gα16, grown under puromycin and zeocin selection; membrane preparation
The experiment in a line: CCR5 receptor membrane binding assay (CHO (Gα16) human CCR5 membranes, [125I]RANTES, SPA beads). The conditions noted are these: 6 h, read-out: hKi [nM] (CCR5). How it is done: The above exemplary substances have been tested for binding to CCR5 using a binding assay as outlined herein below:
CHO, (Gα16) human CCR5 cells were cultured under standardized conditions at 37° C. and 5% CO2 in a humidified incubator. CHO (Gα16) human CCR5 cells were cultivated in Ham's F12 (Invitrogen; #31765068) supplemented with 10 µg/ml Puromycin (Invitrogen; #A11139-03), 200 µg/ml Zeocin (Invitrogen; #45-0003) and 10% FCS (Gibco; #10500-064).
Membranes were prepared from CHO (Gα16) human CCR5 cells. Cells were cultured on […] plates (Nunc; #166508) 2-3 days before membrane preparation (usually 80-100 plates to obtain 80 mg protein).
Cells were scraped off the plates with a big scraper and washed with 2×5 ml ice cold Phosphate Buffer Saline (PBS; Invitrogen; #14040-174). Cell suspension was collected in a glass bottle (on ice). Cell suspension was harvested at 1400 rpm and 4° C. for 10 min and washed in PBS. Cell pellet was resuspended in 40 ml PBS with protease inhibitor mix ‘complete’ (Roche; #11873580001; 1 tablet/50 ml).
For gentle cell disruption the membrane preparation was performed by using a homogenizer (potter). Cells were homogenized for 5-10 min.
Membranes were centrifuged at 1000 rpm and 4° C. for 5 min. Supernatant (=membrane) was harvested in a new falcon tube and remaining cell pellet homogenized again for 5-10 min with PBS with protease inhibitor mix and centrifuged. Collected supernatant was centrifuged at 40000 rpm and 4° C. for 30 min to sediment the cell membranes.
The membranes were resuspended in 25 mM HEPES, 25 mM MgCl2, 1 mM CaCl2, 10% Glycerine for storage in aliquots at −80° C. Membranes were diluted to a concentration of 5 mg/ml (Bradford Assay).
[^125I]RANTES, Stock: 1825 Ci/mmol, 25 μCi (Bio Trend #A3-AI-676) was solved in 1000 μl assay buffer (100 mM NaCl; 10 mM MgCl2; 50 mM Tris-HCl; 1 mM EDTA; 0.1% BSA, pH 7.6), stored at −20° C.
CHO (Gα16) human CCR5 membrane were solved on ice and adjusted with assay buffer to a concentration of 2.5 μg/15 μl.
Amersham Biosciences PVT-WGA Beads (GE Healthcare; #RPNQ0001) were adjusted with assay buffer to a concentration of 8 mg/ml. For preparation of the membrane-bead-suspension, membranes and beads were incubated for 30 min at RT under rotation with a ratio of 1:2.
Test compounds dissolved in 100% DMSO to a concentration of 10 mM and are further diluted with 100% DMSO to 1 mM. All additional compound dilutions were obtained with assay buffer, final 1% DMSO. 7 μl compound dilution, 45 μl membrane-bead-suspension and 10 μl [^125I]RANTES (ca. 20000 cpm/10 μl) were incubated at RT. Bound radioactivity was determined by scintillation counter after 6 h. Determination of affinity of test compounds (dissociation constant Ki) is calculated by iterative fitting of experimental data using the “easy sys” program, which is based on law of mass action (Schittkowski K. (1994), Numerische Mathematik, Vol. 68, 129-142).
Turning to `Cc1c(Nc2ccc(Cl)c(Cl)c2)ncnc1C(=O)N1CCC(N2C[C@H]3C[C@@H](N(C)S(C)(=O)=O)C[C@H]3C2)CC1` [Example 10], the Ki was 92 nM.

With `COc1nc(Nc2ccc(Cl)c(Cl)c2)c(C)c(C(=O)N2CCC(N3CCO[C@H]4COCC[C@H]43)CC2)n1` [Example 28], the Ki is 390 nM.

As for `COc1nc(Nc2cccc(C(F)(F)F)c2)c(C)c(C(=O)N2CCC(N3CCO[C@H]4COCC[C@H]43)CC2)n1` (single isomer, unassigned) [Example 36a], the Ki is 1550 nM.

For the molecule `Cc1c(NC[C@H]2CCC[C@@H](c3ccc(C(F)(F)F)cc3)O2)ncnc1C(=O)N1CCC(N2CCO[C@@H]3COCC[C@@H]32)CC1` [Example 1], the Ki stood at 1770 nM.

As to `Cc1ccc([C@@H]2CCC[C@H](CNc3ncnc(C(=O)N4CCC(N5CC6COCC6C5)CC4)c3C)O2)cc1` (stereo partly drawn) [Example 16], the Ki was found to be 880 nM.

`Cc1c(NC[C@H]2CCC[C@@H](c3ccccc3)C2)ncnc1C(=O)N1CCC(N2CC3CN(S(C)(=O)=O)CC3C2)CC1` (stereo partly drawn) [Example 43]: the Ki was 43 nM.

In the case of `Cc1c(C(=O)N2CCC(N3CCO[C@@H]4COCC[C@@H]43)CC2)ncnc1N1COc2ccc(C(F)(F)F)cc2C1` (single isomer, unassigned) [Example 41], the Ki amounted to 460 nM.

Turning to `Cc1c(Nc2ccc(Cl)c(Cl)c2)nc(C2CC2)nc1C(=O)N1CCC(N2CCO[C@@H]3COCC[C@@H]32)CC1` (single isomer, unassigned) [Example 35b], the Ki was 1350 nM.

For `COc1nc(NCc2ccc(C(C)(C)C)cc2)c(C)c(C(=O)N2CCC(N3CC4COCC4C3)CC2)n1` (stereo not drawn) [Example 19], the Ki turned out to be 4030 nM.

For `Cc1ccc([C@@H]2CCC[C@H](CNc3ncnc(C(=O)N4CCC(N5C[C@H]6C[C@@H](N(C)S(C)(=O)=O)C[C@H]6C5)CC4)c3C)O2)cc1` [Example 6], the Ki is 38 nM.
